Assay results from PMC9572452, “Inhibition of α-Glucosidase and Pancreatic Lipase Properties of Mitragyna speciosa (Korth.) Havil. (Kratom) Leaves” (Nutrients, 2022).
Values joined by “and” are separate entries in the source; they are usually repeats but may differ in a detail not shown here. Identical values can stand only once. “Also recorded” adds a separate entry of the source.

What was measured:
[1] = system: μ-opioid receptors; set-up: method as in PMID 27192616; details: cited from earlier work
[2] = target: T1, α-glucosidase (Saccharomyces cerevisiae, UniProt P53341); test: α-glucosidase inhibition and kinetics, pNPG substrate; assay type: biochemical; details: Lineweaver–Burk plots
T1 sequence (P53341 whole entry): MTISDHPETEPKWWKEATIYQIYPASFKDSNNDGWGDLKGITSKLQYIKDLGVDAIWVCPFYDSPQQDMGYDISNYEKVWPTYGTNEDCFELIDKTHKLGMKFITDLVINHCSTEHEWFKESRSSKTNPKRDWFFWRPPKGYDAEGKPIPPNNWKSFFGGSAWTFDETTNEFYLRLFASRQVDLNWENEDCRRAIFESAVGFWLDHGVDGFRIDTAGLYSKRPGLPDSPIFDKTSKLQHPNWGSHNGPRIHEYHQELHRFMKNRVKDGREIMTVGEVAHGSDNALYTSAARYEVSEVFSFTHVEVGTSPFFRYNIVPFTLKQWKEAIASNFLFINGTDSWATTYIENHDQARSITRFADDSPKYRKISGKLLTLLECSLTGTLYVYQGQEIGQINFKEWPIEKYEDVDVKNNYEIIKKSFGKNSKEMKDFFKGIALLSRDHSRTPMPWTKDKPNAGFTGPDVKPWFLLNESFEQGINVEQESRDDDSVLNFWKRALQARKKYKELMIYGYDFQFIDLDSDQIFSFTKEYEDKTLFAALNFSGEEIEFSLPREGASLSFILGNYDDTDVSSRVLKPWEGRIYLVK
Method: The assay was performed as described previously with some modifications. The kinetic parameters (Michaelis–Menten constant; Km and maximum velocity; Vmax) of α-glucosidase were determined by using p-nitrophenol-α-D-glucopyranoside (pNPG) as a substrate. Briefly, 0.1 unit of α-glucosidase (Sigma-Aldrich, St Louis, MO, USA) were incubated at 37 °C with 100 µL of total reaction. After 10 min, the reactions were started by adding 50 µL pNPG (Sigma-Aldrich, St Louis, MO, USA, lot number 3698310) ranging from 0 to 15 mM, and the p-nitrophenol product was measured at 405 nm using a microplate reader (Multiskan SkyHigh, Thermo Scientific, Göteborg, Sweden). The substrate concentration rates were plotted against pNPG concentrations and fitted to the Michaelis–Menten equation.
The IC50 was determined by comparing the rate of each test inhibitor concentration to that of the vehicle control (ethanol), and the IC50 was calculated by plotting the remaining activity of each inhibitor concentration to the log test inhibitor concentration. […] After co-incubation with each inhibitor for 5 min at 37 °C, the reactions were initiated by adding the p-NPG substrate (0–15 mM). The inhibition constant (Ki) values were determined from Lineweaver–Burk Plots.

[3] = target: T1, α-glucosidase; test: combination of kratom extracts or mitragynine with acarbose on α-glucosidase; assay type: biochemical
Method: After 10 min, the residual reactions were started by the addition of 50 µL of 0.3 mM pNPG. The reactions were left to proceed for 10 min. The absorption at 405 nm was then measured using a microplate reader, and IC50 values were calculated by GraphPad Prism version 9.3.1.

[4] = target: T2, pancreatic lipase (Sus scrofa, UniProt P00591); test: pancreatic lipase inhibition and kinetics, 4MUO substrate; assay type: biochemical; details: for Pancreatic Lipase mode of inhibition: Lineweaver–Burk plots
T2 construct: purchased Sigma-Aldrich
T2 sequence (P00591 1-450): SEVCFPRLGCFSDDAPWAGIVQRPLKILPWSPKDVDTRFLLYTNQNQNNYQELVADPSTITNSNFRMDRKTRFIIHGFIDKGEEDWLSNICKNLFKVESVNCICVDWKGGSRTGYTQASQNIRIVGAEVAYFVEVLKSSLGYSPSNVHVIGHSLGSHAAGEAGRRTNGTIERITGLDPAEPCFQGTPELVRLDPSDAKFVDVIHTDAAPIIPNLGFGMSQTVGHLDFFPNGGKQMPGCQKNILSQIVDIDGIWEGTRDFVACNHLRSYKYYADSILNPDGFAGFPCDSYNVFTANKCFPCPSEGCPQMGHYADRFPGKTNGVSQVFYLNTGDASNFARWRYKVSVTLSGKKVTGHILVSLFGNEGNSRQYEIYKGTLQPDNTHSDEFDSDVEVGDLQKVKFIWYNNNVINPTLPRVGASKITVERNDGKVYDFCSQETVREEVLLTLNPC
Method: The kinetic parameters (Km and Vmax) of pancreatic lipase were determined using 4-methylumbelliferyl oleate (4MUO) as the substrate (Sigma-Aldrich, St Louis, MO, USA, Lot number BCCF8781). Briefly, 0.5 units of lipase (Sigma-Aldrich, St Louis, MO, USA, Lot number SLCG8579) were incubated in 96-well plates with a total volume of 100 µL (15 mM Tris-HCl buffer, pH 8.0) at 37 °C for 10 min. The reactions were initiated by adding 50 µL of 4MUO ranging from 0 to 5 mM. […] The rates at which substrate concentrations were plotted against 4MUO concentrations and fitted to the Michaelis–Menten equation. […] After 10 min, the reactions were started by adding 0.35 mM 4MUO. The reaction rates were monitored by measuring the release of 4MU from 4MUO. […] The remaining activity of lipase was determined by comparing the rate of each test inhibitor concentration to the vehicle control (ethanol), and IC50 was calculated by plotting the remaining activity of each inhibitor concentration to the log test inhibitor concentration.

[5] = system: lipase; set-up: method as in PMID 29292744; details: therapeutic oral dose of 120 mg three times per day; cited from earlier work

In the case of `CC[C@@H]1CN2CC[C@@]3(O)C(=Nc4cccc(OC)c43)[C@@H]2C[C@@H]1/C(=C\OC)C(=O)OC` [7-hydroxymitragynine], the “analgesic activity, fold higher than that of mitragynine” value [1] is given as 16 fold.
For `C[C@H]1O[C@H](O[C@H]2[C@H](O)[C@@H](O)[C@@H](O[C@H]3[C@H](O)[C@@H](O)C(O)O[C@@H]3CO)O[C@@H]2CO)[C@H](O)[C@@H](O)[C@@H]1N[C@H]1C=C(CO)[C@@H](O)[C@H](O)[C@H]1O` (stereo partly shown) [Acarbose, reference compound], the “α-Glucosidase mode of inhibition” value [2] was “mixed-type” and the “α-Glucosidase mode of inhibition” value ([2]; listed as acarbose) was “mixed-type inhibition mode”.
With `CC[C@@H]1CN2CCc3c([nH]c4cccc(OC)c34)[C@@H]2C[C@@H]1/C(=C\OC)C(=O)OC` [Mitragynine] the “potency of combination with acarbose compared with kratom extract combinations” value ([3]; mitragynine 100 µM with acarbose) was “less potency than that of kratom extracts”, the “IC50 of combination with acarbose compared with kratom extract combinations” value ([3]; mitragynine 200 and 300 µM with acarbose) was “decreased IC50 values compared with that of mixed kratom extracts” and the “interaction with acarbose in α-glucosidase inhibition” value ([3]; mitragynine combined with acarbose) was “synergistic interaction; also recorded: synergistic effect”. The “α-Glucosidase mode of inhibition” value [2] was “noncompetitive”, the “α-Glucosidase mode of inhibition” value ([2]; listed as mitragynine) was “noncompetitive inhibitor; also recorded: noncompetitive mode” and the “pancreatic lipase IC50, fold higher than that of orlistat” value [4] was 30 fold. For the same molecule, the IC50 ([4]; 0.35 mM 4MUO, 37 °C, mean ± SD, n = 3) was 24.9 µM and 24.7 µM, the “Pancreatic Lipase mode of inhibition” value [4] was “competitive” and the “Pancreatic Lipase mode of inhibition” value ([4]; listed as mitragynine) was “competitive inhibitors; also recorded: competitive mode”. For the same molecule, the Ki ([4]; from Lineweaver–Burk plots, 4MUO substrate) was 14.9 µM.
In the case of `CCCCCCCCCCC[C@@H](C[C@@H]1OC(=O)[C@H]1CCCCCC)OC(=O)[C@H](CC(C)C)NC=O` [Orlistat, reference compound], the “Pancreatic Lipase mode of inhibition” value [4] is listed as “competitive”, the “Pancreatic Lipase mode of inhibition” value ([4]; listed as orlistat) is listed as “competitive inhibitors; also recorded: competitive mode” and the “reduction of dietary fat absorption” value [5] is listed as “one-third”.
